Test results published in patent US9505742B2, “3,4-dihydro-2H-isoquinoline-1-one and 2,3-dihydro-isoindol-1-one compounds” (Hoffmann-La Roche Inc., priority 2013, dated 2016).
pEC50: −log10 of the molar value.

Key:
[1] = biological target: T1, human CYP11B1 (Homo sapiens, UniProt P15538); test: G-402 cellular enzyme assay, human CYP11B1 (cortisol release, HTRF); type: cell-based; settings: G-402 cells expressing human CYP11B1; 1 μM Deoxycortisol
T1 construct: The expression plasmids contains the ORF for either human/cyno CYP11B1 or CYP11B2; expressed in transfected cells
T1 sequence (P15538 25-503): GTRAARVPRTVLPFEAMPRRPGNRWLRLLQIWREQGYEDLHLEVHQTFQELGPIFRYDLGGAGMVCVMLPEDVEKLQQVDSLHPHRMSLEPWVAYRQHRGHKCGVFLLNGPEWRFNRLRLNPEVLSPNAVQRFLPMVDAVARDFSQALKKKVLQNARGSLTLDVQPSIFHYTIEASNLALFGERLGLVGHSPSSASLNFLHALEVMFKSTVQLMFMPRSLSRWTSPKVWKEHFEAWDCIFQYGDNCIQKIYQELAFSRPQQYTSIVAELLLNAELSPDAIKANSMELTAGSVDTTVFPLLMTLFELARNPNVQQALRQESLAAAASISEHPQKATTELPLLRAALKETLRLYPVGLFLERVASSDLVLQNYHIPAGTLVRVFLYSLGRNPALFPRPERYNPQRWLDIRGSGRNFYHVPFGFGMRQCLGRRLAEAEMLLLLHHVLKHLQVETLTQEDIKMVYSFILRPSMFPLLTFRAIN
From the text: (§1) Herein we identified the use of the G-402 cell line as a host cell to ectopically express (transiently or stably) enzymes of the CYP11 family. Specifically we developed stable G-402 cells expressing ectopically human CYP11B1, human CYP11B2, human CYP11A1, cynmolgus CYP11B1 or cynomolgus CYP11B2 enzyme activity. Importantly the identified cell line G-402 expresses co-factors (adrenodoxin and adrenodoxin reductase) important for the activity of the CYP11 family and no relevant enzyme activity of the CYP11 family (in comparison to H295R cells) was detected in these cells. Therefore the G-402 cell line is uniquely suited as a host cell for the ectopic expression of enzymes from the CYP11 family. G-402 cells can be obtained from ATCC (CRL-1440) and were originally derived from a renal leiomyoblastoma.
(§2) The expression plasmids contains the ORF for either human/cyno CYP11B1 or CYP11B2 under the control of a suitable promoter (CMV-promoter) and a suitable resistance marker (neomycin). Using standard techniques the expression plasmid is transfected into G-402 cells and these cells are then selected for expressing the given resistance markers. Individual cell-clones are then selected and assessed for displaying the desired enzymatic activity using 11-Deoxycorticosterone (Cyp11B2) or 11-Deoxycortisol (Cyp11B) as a substrate.
(§3) G-402 cells expressing CYP11 constructs were established as described above and maintained in McCoy's 5a Medium Modified, ATCC Catalog No. 30-2007 containing 10% FCS and 400 μg/ml G418 (Geneticin) at 37° C. under an atmosphere of 5% CO2/95% air. Cellular enzyme assays were performed in DMEM/F12 medium containing 2.5% charcoal treated FCS and appropriate concentration of substrate (0.3-10 uM 11-Deoxycorticosterone, 11-Deoxycortisol or Corticosterone). For assaying enzymatic activity, cells were plated onto 96 well plates and incubated for 16 h. An aliquot of the supernatant is then transferred and analyzed for the concentration of the expected product (Aldosterone for CYP11B2; Cortisol for CYP11B1). The concentrations of these steroids can be determined using HTRF assays from CisBio analyzing either Aldosterone or Cortisol.
(§4) Inhibition of the release of produced steroids can be used as a measure of the respective enzyme inhibition by test compounds added during the cellular enzyme assay. The dose dependent inhibition of enzymatic activity by a compound is calculated by means of plotting added inhibitor concentrations (x-axes) vs. measured steroid/product level (y-axes). The inhibition is then calculated by fitting the following 4-parameter sigmoidal function (Morgan-Mercer-Flodin (MMF) model) to the raw data points using the least squares method:
(§5) [formula] wherein, A is the maximum y value, B is the EC50 factor determined using XLFit, C is the minimum y value and D is the slope value.
(§6) EC50 values for compounds claimed herein were tested with the G402-based assay system described. Cyp11B2 enzyme activity was tested in presence of 1 μM Deoxycorticosterone and variable amounts of inhibitors; Cyp11B1 enzyme activity was tested in presence of 1 μM Deoxycortisol and variable amounts of inhibitors.

[2] = biological target: T2, human CYP11B2 (Homo sapiens, UniProt P19099); test: G-402 cellular enzyme assay, human CYP11B2 (aldosterone release, HTRF); type: cell-based; settings: G-402 cells expressing human CYP11B2; 1 μM Deoxycorticosterone
T2 construct: The expression plasmids contains the ORF for either human/cyno CYP11B1 or CYP11B2; expressed in transfected cells
T2 sequence (P19099 25-503): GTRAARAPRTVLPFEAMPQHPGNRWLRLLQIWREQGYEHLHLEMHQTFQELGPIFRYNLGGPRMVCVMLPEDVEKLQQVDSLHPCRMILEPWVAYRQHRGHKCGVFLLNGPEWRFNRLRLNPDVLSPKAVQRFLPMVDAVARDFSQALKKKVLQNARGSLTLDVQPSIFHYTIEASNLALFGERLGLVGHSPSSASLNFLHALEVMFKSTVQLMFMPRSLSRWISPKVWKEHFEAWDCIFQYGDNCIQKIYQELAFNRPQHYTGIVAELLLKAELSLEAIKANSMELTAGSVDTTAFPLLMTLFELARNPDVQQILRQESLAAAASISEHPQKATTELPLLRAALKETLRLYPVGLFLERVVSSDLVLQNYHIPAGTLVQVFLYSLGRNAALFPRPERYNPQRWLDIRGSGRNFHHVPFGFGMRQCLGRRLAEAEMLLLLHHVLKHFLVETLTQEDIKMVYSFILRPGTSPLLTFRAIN
From the text: as §1, §2, §3, §4, §5, §6

| pEC50 [1] | pEC50 [2] | SMILES |
| --- | --- | --- |
| 6.36 | 8.70 | CCS(=O)(=O)N1CCC(c2cncc(N3C(=O)c4ccc(Cl)cc4[C@H]3C)c2)CC1 (single isomer, unassigned) [Example 24, (+)-(3R or 3S)-5-chloro-2-[5-(1-ethylsulfonylpiperidin-4-yl)pyridin-3-yl]-3-methyl-3H-isoindol-1-one] |
| 6.97 | 8.70 | CCS(=O)(=O)N1CCC(c2cncc(N3C(=O)c4ccc(Cl)cc4[C@@H]3C)c2)CC1 (single isomer, unassigned) [Example 25, (−)-(3S or 3R)-5-chloro-2-[5-(1-ethylsulfonylpiperidin-4-yl)pyridin-3-yl]-3-methyl-3H-isoindol-1-one] |
| 5.79 | 7.96 | CC(C)S(=O)(=O)N1CCC(c2cncc(N3C(=O)c4ccc(Cl)cc4[C@H]3C)c2)CC1 (single isomer, unassigned) [Example 26, (+)-(3R or 3S)-5-chloro-3-methyl-2-[5-(1-propan-2-ylsulfonylpiperidin-4-yl)pyridin-3-yl]-3H-isoindol-1-one] |
| 6.28 | 9.00 | CC(C)S(=O)(=O)N1CCC(c2cncc(N3C(=O)c4ccc(Cl)cc4[C@@H]3C)c2)CC1 (single isomer, unassigned) [Example 27, (−)-(3S or 3R)-5-chloro-3-methyl-2-[5-(1-propan-2-ylsulfonylpiperidin-4-yl)pyridin-3-yl]-3H-isoindol-1-one] |
| 6.78 | 8.40 | Cc1ccncc1C(=O)N1CCC(c2cncc(N3C(=O)c4ccc(Cl)cc4[C@H]3C)c2)CC1 (single isomer, unassigned) [Example 28, (+)-(3R or 3S)-5-chloro-3-methyl-2-[5-[1-(4-methylpyridine-3-carbonyl)piperidin-4-yl]pyridin-3-yl]-3H-isoindol-1-one] |
| 6.93 | 8.05 | Cc1ccncc1C(=O)N1CCC(c2cncc(N3C(=O)c4ccc(Cl)cc4[C@@H]3C)c2)CC1 (single isomer, unassigned) [Example 29, (−)-(3S or 3R)-5-chloro-3-methyl-2-[5-[1-(4-methylpyridine-3-carbonyl)piperidin-4-yl]pyridin-3-yl]-3H-isoindol-1-one] |
| 6.67 | 8.30 | CC1(C)c2cc(Cl)ccc2C(=O)N1c1cncc(C2CCCN(S(C)(=O)=O)C2)c1 (single isomer, unassigned; (+)) [Example 5, (+)-5-chloro-3,3-dimethyl-2-[5-[(3R or 3S)-1-methylsulfonylpiperidin-3-yl]pyridin-3-yl]isoindol-1-one] |
| 6.96 | 8.40 | CCCS(=O)(=O)N1CCC(c2cncc(N3C(=O)c4ccc(Cl)cc4C3(C)C)c2)C1 (single isomer, unassigned; (+)) [Example 8, (+)-5-chloro-3,3-dimethyl-2-[5-[(3R or 3S)-1-propylsulfonylpyrrolidin-3-yl]pyridin-3-yl]isoindol-1-one] |
| 7.03 | 8.70 | CC(C)S(=O)(=O)N1CCC(c2cncc(N3C(=O)c4ccc(Cl)cc4C3(C)C)c2)C1 (single isomer, unassigned; (+)) [Example 10, (+)-5-chloro-3,3-dimethyl-2-[5-[(3R or 3S)-1-propan-2-ylsulfonylpyrrolidin-3-yl]pyridin-3-yl]isoindol-1-one] |
| 7.12 | 8.70 | CC1(C)c2cc(Cl)ccc2C(=O)N1c1cncc(C2CCN(S(=O)(=O)C3CC3)C2)c1 (single isomer, unassigned; (+)) [Example 12, (+)-5-chloro-2-[5-[(3R or 3S)-1-cyclopropylsulfonylpyrrolidin-3-yl]pyridin-3-yl]-3,3-dimethylisoindol-1-one] |
| 6.48 | 7.82 | CC1(C)c2cc(Cl)ccc2C(=O)N1c1cncc(C2CCCN(S(C)(=O)=O)C2)c1 (single isomer, unassigned; (-)) [Example 6, (−)-5-chloro-3,3-dimethyl-2-[5-[(3S or 3R)-1-methylsulfonylpiperidin-3-yl]pyridin-3-yl]isoindol-1-one] |
